Values quoted from earlier work in patent US20090232916A1, “FOOD PRODUCTS FOR DIABETICS” (priority 2004, published 2009).

Tested on: IGT subjects
Settings: over a period of three years

CN(C)C(=N)N=C(N)N [metformin]
reduction of the risk of progressing from IGT to diabetes: 31%
